According to ChEMBL document CHEMBL1147299, “12-epi-teuscordonin and other neoclerodanes from Teucrium bicolor” (J Nat Prod, 1989):

System: Artemia salina
Test: Toxicity to Artemia salina after 24 hrs
Format: organism-based
Details: in vivo

In the case of `C[C@@H]1C[C@@H](O)[C@@]23COC(=O)[C@@H]2CCC[C@@H]3[C@@]12C[C@@H](c1ccoc1)OC2=O`, the LC50 is reported as > 500 ppm.
In the case of `CC(=O)OC[C@@]12[C@@H](OC(C)=O)C[C@@H](C)[C@]3(C[C@H](c4ccoc4)OC3=O)[C@H]1CCC[C@]21CO1` [MONTANIN C], the LC50 is reported as 66.4 ppm.
`C[C@@H]1C[C@@H]2OC(=O)C3=C2[C@H](CCC3)[C@@]12C[C@@H](c1ccoc1)OC2=O` [TEUCVIN] was tested, and the LC50 was > 500 ppm.
